Data: ChEMBL document CHEMBL1139057, “Rotenoids and flavonoids with anti-invasion of HT1080, anti-proliferation of U937, and differentiation-inducing activity in HL-60 from Erycibe expansa” (Bioorg Med Chem, 2007)
Activity calls are given as the source filed them. The calls are words filed in the database; no cut-off is given here.

Legend:
[1] = tested on: U-937; experiment: Antiproliferative activity against human U937 cells after 24 hrs by WST-8 assay; type: functional, cell-based; conditions: U-937, 24 h
[2] = tested on: U-937; experiment: Antiproliferative activity against human U937 cells after 48 hrs by WST-8 assay; type: functional, cell-based; conditions: U-937, 48 h
[3] = tested on: U-937; experiment: Antiproliferative activity against human U937 cells after 72 hrs by WST-8 assay; type: functional, cell-based; conditions: U-937, 72 h
[4] = tested on: HT-1080; experiment: Antiproliferative activity against human HT1080 cells at 30 uM after 48 hrs by calcein-AM assay; type: functional; conditions: HT-1080, 48 h
[5] = tested on: HT-1080; experiment: Antiproliferative activity against human HT1080 cells at 1 uM after 72 hrs by MTT assay; type: functional; conditions: HT-1080, 72 h
[6] = tested on: HT-1080; experiment: Antiproliferative activity against human HT1080 cells at 30 uM after 24 hrs by MTT assay; type: functional; conditions: HT-1080, 24 h
[7] = tested on: HT-1080; experiment: Inhibition of proMMP9 production in human HT1080 cells by gelatin zymography analysis; type: functional, cell-based
[8] = tested on: HT-1080; experiment: Antiproliferative activity against human HT1080 cells at 3 uM after 24 hrs by calcein-AM assay; type: functional; conditions: HT-1080, 24 h
[9] = tested on: HT-1080; experiment: Antiproliferative activity against human HT1080 cells at 3 uM after 48 hrs by calcein-AM assay; type: functional; conditions: HT-1080, 48 h
[10] = tested on: HT-1080; experiment: Antiproliferative activity against human HT1080 cells at 10 uM after 48 hrs by MTT assay; type: functional; conditions: HT-1080, 48 h
[11] = tested on: HT-1080; experiment: Antiproliferative activity against human HT1080 cells at 10 uM after 72 hrs by MTT assay; type: functional; conditions: HT-1080, 72 h
[12] = tested on: HT-1080; experiment: Antiproliferative activity against human HT1080 cells at 1 uM after 24 hrs by MTT assay; type: functional; conditions: HT-1080, 24 h
[13] = tested on: HT-1080; experiment: Inhibition of invasion of human HT1080 cells at 30 uM after 24 hrs; type: functional; conditions: HT-1080, 24 h
[14] = tested on: HT-1080; experiment: Antiproliferative activity against human HT1080 cells at 1 uM after 72 hrs by calcein-AM assay; type: functional; conditions: HT-1080, 72 h
[15] = tested on: HT-1080; experiment: Antiproliferative activity against human HT1080 cells at 1 uM after 48 hrs by calcein-AM assay; type: functional; conditions: HT-1080, 48 h
[16] = tested on: HT-1080; experiment: Inhibition of invasion of human HT1080 cells at 3 uM after 24 hrs; type: functional; conditions: HT-1080, 24 h
[17] = tested on: HT-1080; experiment: Antiproliferative activity against human HT1080 cells at 3 uM after 48 hrs by MTT assay; type: functional; conditions: HT-1080, 48 h
[18] = tested on: HT-1080; experiment: Antiproliferative activity against human HT1080 cells at 30 uM after 72 hrs by calcein-AM assay; type: functional; conditions: HT-1080, 72 h
[19] = tested on: HT-1080; experiment: Antiproliferative activity against human HT1080 cells at 3 uM after 72 hrs by MTT assay; type: functional; conditions: HT-1080, 72 h
[20] = tested on: HT-1080; experiment: Antiproliferative activity against human HT1080 cells at 30 uM after 48 hrs by MTT assay; type: functional; conditions: HT-1080, 48 h
[21] = tested on: HT-1080; experiment: Antiproliferative activity against human HT1080 cells at 10 uM after 24 hrs by MTT assay; type: functional; conditions: HT-1080, 24 h
[22] = tested on: HT-1080; experiment: Antiproliferative activity against human HT1080 cells at 3 uM after 72 hrs by calcein-AM assay; type: functional; conditions: HT-1080, 72 h
[23] = tested on: HT-1080; experiment: Inhibition of invasion of human HT1080 cells at 10 uM after 24 hrs; type: functional; conditions: HT-1080, 24 h
[24] = tested on: HT-1080; experiment: Antiproliferative activity against human HT1080 cells at 1 uM after 48 hrs by MTT assay; type: functional; conditions: HT-1080, 48 h
[25] = tested on: HT-1080; experiment: Inhibition of invasion of human HT1080 cells at 1 uM after 24 hrs; type: functional; conditions: HT-1080, 24 h
[26] = tested on: HT-1080; experiment: Antiproliferative activity against human HT1080 cells at 30 uM after 72 hrs by MTT assay; type: functional; conditions: HT-1080, 72 h
[27] = tested on: HT-1080; experiment: Antiproliferative activity against human HT1080 cells at 3 uM after 24 hrs by MTT assay; type: functional; conditions: HT-1080, 24 h
[28] = tested on: HT-1080; experiment: Antiproliferative activity against human HT1080 cells at 10 uM after 24 hrs by calcein-AM assay; type: functional; conditions: HT-1080, 24 h
[29] = tested on: HT-1080; experiment: Antiproliferative activity against human HT1080 cells at 1 uM after 24 hrs by calcein-AM assay; type: functional; conditions: HT-1080, 24 h
[30] = tested on: HT-1080; experiment: Inhibition of proMMP2 production in human HT1080 cells by gelatin zymography analysis; type: functional, cell-based
[31] = tested on: HT-1080; experiment: Antiproliferative activity against human HT1080 cells at 10 uM after 72 hrs by calcein-AM assay; type: functional; conditions: HT-1080, 72 h
[32] = tested on: HT-1080; experiment: Antiproliferative activity against human HT1080 cells at 10 uM after 48 hrs by calcein-AM assay; type: functional; conditions: HT-1080, 48 h
[33] = tested on: HT-1080; experiment: Antiproliferative activity against human HT1080 cells at 30 uM after 24 hrs by calcein-AM assay; type: functional; conditions: HT-1080, 24 h

## COc1cc(O)c(-c2coc3cc(O)ccc3c2=O)cc1OC
[1]
  IC50: > 100 µM
[2]
  IC50: 72 µM
[3]
  IC50: 48 µM

## CC[C@@]1(O)C(=O)OCc2c1cc1n(c2=O)Cc2cc3ccccc3nc2-1 [CAMPTOTHECIN]
[1]
  IC50: 0.68 µM
[2]
  IC50: 0.032 µM
[3]
  IC50: 0.015 µM

## CC1(C)C=Cc2c(cc(O)c3c(=O)c(-c4ccc(O)cc4)coc23)O1 [DERRONE]
[1]
  IC50: 26 µM
[2]
  IC50: 20 µM
[3]
  IC50: 13 µM

## O=C1C[C@@H](c2ccc(O)c(O)c2)Oc2cc(O)cc(O)c21 [ERIODICTYOL]
[1]
  IC50: > 100 µM
[2]
  IC50: > 100 µM
[3]
  IC50: > 100 µM

## COc1ccc2c(c1)O[C@@H]1[C@H]2COC2=CC(=O)CC[C@@]21O
[1]
  IC50: > 100 µM
[2]
  IC50: > 100 µM
[3]
  IC50: > 100 µM

## C=C(C)[C@H]1Cc2c(ccc3c2O[C@@H]2COc4cc(OC)c(OC)cc4[C@]2(O)C3=O)O1 [ROTENOLONE]
[1]
  IC50: 3.6 µM
[4]
  inhibition at 30 µM: 53.6%
[5]
  inhibition at 1 µM: 98.3%
[6]
  inhibition at 30 µM: 5.5%
[7]
  Activity: Active
[8]
  inhibition at 3 µM: 21.8%
[9]
  inhibition at 3 µM: 50.6%
[10]
  inhibition at 10 µM: 96.4%
[11]
  inhibition at 10 µM: 98.3%
[12]
  inhibition at 1 µM: -2%
[13]
  inhibition at 30 µM: 54.6%
[14]
  inhibition at 1 µM: 97.3%
[15]
  inhibition at 1 µM: 52.2%
[16]
  inhibition at 3 µM: 30.6%
[17]
  inhibition at 3 µM: 96.9%
[18]
  inhibition at 30 µM: 95%
[19]
  inhibition at 3 µM: 98.7%
[20]
  inhibition at 30 µM: 96%
[2]
  IC50: 0.07 µM
[21]
  inhibition at 10 µM: 2.4%
[22]
  inhibition at 3 µM: 97.1%
[23]
  inhibition at 10 µM: 64.9%
[24]
  inhibition at 1 µM: 95.8%
[25]
  inhibition at 1 µM: 3.3%
[26]
  inhibition at 30 µM: 98.5%
[3]
  IC50: 0.09 µM
[27]
  inhibition at 3 µM: 0.8%
[28]
  inhibition at 10 µM: 24.4%
[29]
  inhibition at 1 µM: 17.2%
[30]
  Activity: Active
[31]
  inhibition at 10 µM: 94.9%
[32]
  inhibition at 10 µM: 47.6%
[33]
  inhibition at 30 µM: 29.2%

## COc1ccc2c(c1)OC[C@H]1c3cc4c(cc3O[C@@H]21)OCO4 [PTEROCARPIN]
[1]
  IC50: > 100 µM
[2]
  IC50: > 100 µM
[3]
  IC50: > 100 µM

## CC1(C)C=Cc2c(cc3occ(-c4ccc(O)cc4)c(=O)c3c2O)O1 [ALPINUMISOFLAVONE]
[1]
  IC50: 35 µM
[2]
  IC50: 32 µM
[3]
  IC50: 28 µM

## O=c1c(-c2ccc(O)c(O)c2)coc2cc(O)cc(O)c12 [OROBOL]
[1]
  IC50: 73 µM
[2]
  IC50: > 100 µM
[3]
  IC50: > 100 µM

## CC(=O)O[C@H]1C(=O)[C@@]2(C)[C@H]([C@H](OC(=O)c3ccccc3)[C@]3(O)C[C@H](OC(=O)[C@H](O)[C@@H](NC(=O)c4ccccc4)c4ccccc4)C(C)=C1C3(C)C)[C@]1(OC(C)=O)CO[C@@H]1C[C@@H]2O [PACLITAXEL]
[4]
  inhibition at 30 µM: 70%
[5]
  inhibition at 1 µM: 65.6%
[6]
  inhibition at 30 µM: 10.3%
[8]
  inhibition at 3 µM: 10.8%
[9]
  inhibition at 3 µM: 64.4%
[10]
  inhibition at 10 µM: 50%
[11]
  inhibition at 10 µM: 81.4%
[12]
  inhibition at 1 µM: 4.7%
[13]
  inhibition at 30 µM: 89.2%
[14]
  inhibition at 1 µM: 59.8%
[15]
  inhibition at 1 µM: 46.2%
[16]
  inhibition at 3 µM: 79.8%
[17]
  inhibition at 3 µM: 48.7%
[18]
  inhibition at 30 µM: 87.7%
[19]
  inhibition at 3 µM: 79.8%
[20]
  inhibition at 30 µM: 50.3%
[21]
  inhibition at 10 µM: 12.2%
[22]
  inhibition at 3 µM: 87%
[23]
  inhibition at 10 µM: 87.8%
[24]
  inhibition at 1 µM: 43.7%
[25]
  inhibition at 1 µM: 50.5%
[26]
  inhibition at 30 µM: 79.9%
[27]
  inhibition at 3 µM: 12.6%
[28]
  inhibition at 10 µM: 12.4%
[29]
  inhibition at 1 µM: -0.5%
[31]
  inhibition at 10 µM: 87.6%
[32]
  inhibition at 10 µM: 70.9%
[33]
  inhibition at 30 µM: 10.3%

## COc1ccc(-c2coc3cc(O)ccc3c2=O)cc1 [FORMONONETIN]
[1]
  IC50: 50 µM
[2]
  IC50: 44 µM
[3]
  IC50: 45 µM

## COc1cc2c(cc1OC)[C@@H]1COc3cc(O)ccc3[C@@H]1O2 [SECUNDIFLOROL I]
[1]
  IC50: > 100 µM
[2]
  IC50: > 100 µM
[3]
  IC50: > 100 µM

## COc1ccc2c(=O)c(-c3ccc(OC)c(OC)c3)coc2c1
[1]
  IC50: > 100 µM
[2]
  IC50: > 100 µM
[3]
  IC50: > 100 µM

## COc1ccc([C@@H]2CCc3c(OC)cc(OC)cc3O2)c(O)c1 [ERYCEBENIN E]
[1]
  IC50: 37 µM
[2]
  IC50: 4.3 µM
[3]
  IC50: 2.9 µM

## COc1ccc2c(c1)O[C@H]1c3ccc(OC)cc3OC[C@@H]21 [HOMOPTEROCARPIN]
[1]
  IC50: > 100 µM
[2]
  IC50: > 100 µM
[3]
  IC50: > 100 µM
